Experimental data: ChEMBL document CHEMBL4406812, “Synthesis of quinones with highlighted biological applications: A critical update on the strategies towards bioactive compounds with emphasis on lapachones” (Eur J Med Chem, 2019)
pIC50: −log10 of the molar value.

Assays:
[1] = tested on: Trypanosoma cruzi; assay: Trypanocidal activity against Trypanosoma cruzi Y strain bloodstream trypomastigotes isolated from infected Swiss mouse after 24 hrs by Neubauer chamber method; type: functional, organism-based
[2] = tested on: Trypanosoma cruzi; assay: Trypanocidal activity against Trypanosoma cruzi Y strain bloodstream trypomastigotes after 24 hrs; type: functional, organism-based
[3] = tested on: MCF7; assay: Anticancer activity against human MCF7 cells; type: functional, cell-based
[4] = tested on: HepG2; assay: Cytotoxicity against human HepG2 cells assessed as reduction in cell viability after 48 hrs by MTT assay; type: functional, cell-based; details: HepG2, 48 h
[5] = tested on: L02; assay: Cytotoxicity against human LO2 cells assessed as reduction in cell viability after 48 hrs by MTT assay; type: functional, cell-based; details: L02, 48 h
[6] = tested on: Trypanosoma cruzi; assay: Anti-parasitic activity against Trypanosoma cruzi; type: functional, organism-based
[7] = tested on: Trypanosoma cruzi; assay: Anti-parasitic activity against epimastigotes form of Trypanosoma cruzi; type: functional, organism-based
[8] = tested on: Trypanosoma cruzi; assay: Trypanocidal activity against Trypanosoma cruzi Y strain bloodstream trypomastigotes isolated from infected Swiss mouse infected with monkey LLC-MK2 cells after 5 days by fluorescence spectrophotometric analysis; type: functional, organism-based; details: LLC-MK2, 120 h
[9] = Selectivity index, ratio of CC50 for monkey LLC-MK2 cells to IC50 for Trypanosoma cruzi Y strain bloodstream trypomastigotes; type: toxicity; details: read-out: Ratio IC50
[10] = tested on: Trypanosoma cruzi; assay: Anti-parasitic activity against amastigote form of Trypanosoma cruzi after 24 hrs; type: functional, organism-based
[11] = tested on: Trypanosoma cruzi; assay: Anti-parasitic activity against trypomastigotes form of Trypanosoma cruzi after 24 hrs; type: functional, organism-based
[12] = tested on: HL-60; assay: Anticancer activity against human HL60 cells by MTT assay; type: functional, cell-based
[13] = tested on: HCT-116; assay: Anticancer activity against human HCT116 cells by MTT assay; type: functional, cell-based
[14] = tested on: SF-295; assay: Anticancer activity against human SF295 cells by MTT assay; type: functional, cell-based
[15] = tested on: OVCAR-8; assay: Anticancer activity against human OVCAR8 cells by MTT assay; type: functional, cell-based
[16] = tested on: Trypanosoma cruzi; assay: Potency index, ratio of beta-lapachone IC50 to compound IC50 for Trypanosoma cruzi after 24 hrs; type: functional, organism-based
[17] = tested on: HL-60; assay: Anticancer activity against human HL60 cells; type: functional, cell-based
[18] = tested on: HCT-116; assay: Anticancer activity against human HCT116 cells; type: functional, cell-based
[19] = tested on: L929; assay: Anticancer activity against mouse L929 cells; type: functional, cell-based
[20] = tested on: MDA-MB-435; assay: Cytotoxicity against human MDA-MB-435 cells assessed as reduction in cell viability after 72 hrs by MTT assay; type: functional, cell-based; details: MDA-MB-435, 72 h
[21] = tested on: SF-295; assay: Cytotoxicity against human SF295 cells assessed as reduction in cell viability after 72 hrs by MTT assay; type: functional, cell-based; details: SF-295, 72 h
[22] = tested on: Hs-578T; assay: Cytotoxicity against human Hs578T cells assessed as reduction in cell viability after 72 hrs by MTT assay; type: functional, cell-based
[23] = tested on: SW-620; assay: Cytotoxicity against human SW620 cells assessed as reduction in cell viability after 72 hrs by MTT assay; type: functional, cell-based; details: SW-620, 72 h
[24] = tested on: Hs-578T; assay: Cytotoxicity against human Hs 578T cells assessed as reduction in cell viability after 72 hrs by MTT assay; type: functional, cell-based
[25] = tested on: NCI-H358; assay: Cytotoxicity against human NCI-H358 cells assessed as reduction in cell viability after 72 hrs by MTT assay; type: functional, cell-based; details: NCI-H358, 72 h
[26] = tested on: HL-60; assay: Cytotoxicity against human HL60 cells assessed as reduction in cell viability after 72 hrs by MTT assay; type: functional, cell-based; details: HL-60, 72 h
[27] = tested on: HCT-8; assay: Cytotoxicity against human HCT8 cells assessed as reduction in cell viability after 72 hrs by MTT assay; type: functional, cell-based; details: HCT-8, 72 h

CCOC(=O)/C=C/c1cccc2c1C(=O)C=CC2=O
pIC50 [1]: 4.20

COc1ccc(I)c2c1C(=O)C=C(C)C2=O
pIC50 [2]: 5.12

CC1(C)OC2=C(C(=O)C(=O)c3ccccc32)C1CO (stereo not given)
pIC50 [3]: 6.34

O=C1C(=O)c2ccccc2C2=C1C1(C(=O)Nc3ccc(Br)cc31)N1NN=NC1=N2 (stereo not given)
pIC50 [4]: 4.44 to 5.54 | pIC50 [5]: 4.44 to 5.54

O=C1C(=O)c2ccccc2C2=C1C1(C(=O)Nc3ccccc31)N1NN=NC1=N2 (stereo not given)
pIC50 [4]: 4.44 to 5.54 | pIC50 [5]: 4.44 to 5.54

Nc1c(I)ccc2c1C(=O)C=CC2=O
pIC50 [6]: 6.22

O=C1C(=O)c2ccccc2C2=C1C1(C(=O)Nc3cc(Cl)ccc31)N1NN=NC1=N2 (stereo not given)
pIC50 [4]: 4.44 to 5.54 | pIC50 [5]: 4.44 to 5.54

CCC(C)OP(=O)(N/N=C1\C(=O)C2=C(OC(C)(C)CC2)c2ccccc21)OC(C)CC (stereo not given)
pIC50 [7]: 4.72

Cc1cc(I)c2c(c1)C(=O)C=CC2=O
pIC50 [6]: 6.30

O=C(Cn1ccnc1[N+](=O)[O-])NCc1ccccc1 [BENZNIDAZOLE]
pIC50 [8]: 4.70 | selectivity ratio [9]: 16.8 | pIC50 [10]: 5.48 | pIC50 [2]: 5.01

O=C1C(=O)c2ccccc2C2=C1C1(C(=O)Nc3ccc(Cl)cc31)N1NN=NC1=N2 (stereo not given)
pIC50 [4]: 4.44 to 5.54 | pIC50 [5]: 4.44 to 5.54

O=C1C=CC(=O)c2c(Sc3ccccc3)cccc21
pIC50 [11]: 4.91

O=C1C=CC(=O)c2c(Sc3ccc(Br)cc3)cccc21
pIC50 [11]: 5.18

CC1(C)O[C@@H]2O[C@@H](COC3C4=C(OC3(C)C)c3ccccc3C(=O)C4=O)[C@H]3OC(C)(C)O[C@H]3[C@@H]2O1 (stereo not given in full)
pIC50 [12]: 6.64 | pIC50 [13]: 6.46 | pIC50 [14]: 6.64 | pIC50 [15]: 6.15

Cc1ccc(Sc2cccc3c2C(=O)C=CC3=O)cc1
pIC50 [11]: 5.60

CC1(C)CCc2c(c3ccccc3c3nc4cc(Nc5ccccc5)/c(=N/c5ccccc5)cc-4n(-c4ccccc4)c23)O1
Ratio IC50 [16]: 61.3

CC1(C)OC2=C(C(=O)C(=O)c3ccccc32)[C@H](n2cc(C[Se]c3ccc(F)cc3)nn2)[C@H]1Br
pIC50 [17]: 6.23 | pIC50 [18]: 6.43 | pIC50 [19]: 6.44

CC1(C)OC2=C(C(=O)C(=O)c3ccccc32)C1n1cc(-c2ccc(Nc3ccccn3)c3nsnc23)nn1 (stereo not given)
pIC50 [20]: 6.23 | pIC50 [21]: 6.13 | pIC50 [22]: 6.24 | pIC50 [23]: 6.26 | pIC50 [24]: 6.23 | pIC50 [25]: 6.15

O=C1C(=O)c2c(O)cccc2C2=C1CCC(c1ccccc1)O2 (stereo not given)
pIC50 [20]: 5.89 | pIC50 [21]: 5.89 | pIC50 [26]: 5.89 | pIC50 [27]: 5.89

CCCCCCCCC1CC2=C(O1)c1ccccc1C(=O)C2=O (stereo not given)
pIC50 [8]: 4.68 | selectivity ratio [9]: 106

COc1ccc(NC2CC(C)(C)OC3=C2C(=O)c2ccccc2C3=O)cc1 (stereo not given)
pIC50 [17]: 7.15

COc1cccc2c1C(=O)c1c(O)c3c(c(O)c1C2=O)C[C@@](O)(C(=O)CO)C[C@@H]3O[C@H]1C[C@H](N)[C@H](O)[C@H](C)O1 [DOXORUBICIN]
pIC50 [20]: 6.06 to 7.52 | pIC50 [21]: 6.06 to 7.52 | pIC50 [22]: 6.12 | pIC50 [23]: 6.11 | pIC50 [24]: 6.08 | pIC50 [25]: 6.05 | pIC50 [3]: 6.44 | pIC50 [27]: 7.52

Nc1nnn[nH]1
pIC50 [4]: 4.44 to 5.54 | pIC50 [5]: 4.44 to 5.54

O=C1C(=O)c2ccccc2C2=C1C1(C(=O)Nc3c(C(F)(F)F)cccc31)N1NN=NC1=N2 (stereo not given)
pIC50 [4]: 4.44 to 5.54 | pIC50 [5]: 4.44 to 5.54

CC(=O)OCC1C2=C(OC1(C)C)c1ccccc1C(=O)C2=O (stereo not given)
pIC50 [3]: 6.22
